US20260356819A1, “OXOISOINDOLINYL-SUBSTITUTED […] DERIVATIVE AND USE THEREOF” (GLUETACS THERAPEUTICS (SHANGHAI) CO., LTD., priority 2023, published 2026)
pIC50: −log10 of the molar value.

Assays:
MM.1S cells = assay: Inhibition of proliferation of multiple myeloma cells MM.1S (cell viability assay, 96 h); format: cell-based, human; conditions: read-out: inhibitory activity (IC50) against tumor cells proliferation, MM.1S
MGC803 cells = assay: Inhibition of proliferation of gastric cancer cells MGC803 (cell viability assay, 96 h); format: cell-based, human; conditions: read-out: inhibitory activity (IC50) against tumor cells proliferation, MGC803
Procedure: (§1) The tumor cells used herein were cultured in a cell culture medium listed in table 2 at 37 °C in an incubator with 5% CO2. Prior to experimentation, all cell lines used were correctly identified by STR profiling, and tested negative for Mycoplasma contamination using a Mycoplasma detection kit through routine screenings.
The IC50 values of the compounds of the present disclosure (including the compounds in Table 1, and Examples 1-498) were determined using the CellTiter-Meiluncell Luminescent Cell Viability Assay Kit from Dalian Meilun Biotech Co., Ltd. The detailed procedure is as follows: Tumor cells were seeded in 96-well cell culture plates at the densities specified in Table 3. On the following day, the test compounds of the present disclosure were subjected to serial dilution. […] Subsequently, 0.5 μL of the test compound dilution was transferred into the 96-well plate containing the cells, with each well containing 100 μL of cell culture medium. […] Into the 96-well plate, the diluted test compounds and corresponding detection reagents were added, resulting in final test compound concentrations of 500 nM and 10 nM, respectively. The experimental procedure is described below using the diluted 2 μM test compound as an example.
0.5 μL of the aforementioned diluted compound of the present disclosure (including the compounds in Table 1, and Examples 1-498) was added to the seeded cells in 100 μL of medium, yielding a final test compound concentration of 10 nM. After the cells were treated with the compounds of the present disclosure for a specified period, the cell viability assay reagent was added to the culture medium according to the kit's instructions to determine cell viability. […] All controls were treated using the same procedure as the compounds of the present disclosure. The growth inhibition curves for the compounds of the present disclosure were plotted using Prism GraphPad software, and the IC50 values were calculated therefrom.

Jurkat cells = assay: Inhibition of proliferation of T lymphocytic leukemia cells Jurkat (cell viability assay, 96 h); format: cell-based, human; conditions: read-out: inhibitory activity (IC50) against tumor cells proliferation, Jurkat
WEE1 = target: T1, WEE1 (Homo sapiens, UniProt P30291+Q96SW2); assay: Western blot degradation of WEE1 in hPBMCs (24 h); format: cell-based; conditions: compounds at 50 nM and 500 nM
T1 construct: The supernatant was aspirated as the extracted total cell protein; endogenous in cells; host or cells: human peripheral blood mononuclear cells (hPBMCs)
T1 sequence (P30291 whole entry): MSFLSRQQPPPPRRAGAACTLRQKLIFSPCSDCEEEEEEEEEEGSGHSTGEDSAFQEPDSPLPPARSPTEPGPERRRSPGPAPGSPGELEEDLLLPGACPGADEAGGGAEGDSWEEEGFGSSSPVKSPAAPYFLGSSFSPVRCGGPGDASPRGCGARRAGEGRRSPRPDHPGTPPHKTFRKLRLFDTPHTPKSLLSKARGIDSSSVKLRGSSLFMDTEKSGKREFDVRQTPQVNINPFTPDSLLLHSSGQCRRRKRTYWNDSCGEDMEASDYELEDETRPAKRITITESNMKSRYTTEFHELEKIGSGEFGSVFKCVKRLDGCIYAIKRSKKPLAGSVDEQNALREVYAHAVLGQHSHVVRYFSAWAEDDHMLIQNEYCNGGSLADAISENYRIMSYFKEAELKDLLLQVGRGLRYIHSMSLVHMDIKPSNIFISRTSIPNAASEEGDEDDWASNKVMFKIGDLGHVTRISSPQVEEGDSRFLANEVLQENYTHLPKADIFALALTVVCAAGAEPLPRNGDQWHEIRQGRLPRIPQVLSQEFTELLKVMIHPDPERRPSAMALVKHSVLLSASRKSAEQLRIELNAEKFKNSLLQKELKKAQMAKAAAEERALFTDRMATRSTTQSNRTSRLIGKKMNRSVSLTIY
T1 sequence (Q96SW2 whole entry): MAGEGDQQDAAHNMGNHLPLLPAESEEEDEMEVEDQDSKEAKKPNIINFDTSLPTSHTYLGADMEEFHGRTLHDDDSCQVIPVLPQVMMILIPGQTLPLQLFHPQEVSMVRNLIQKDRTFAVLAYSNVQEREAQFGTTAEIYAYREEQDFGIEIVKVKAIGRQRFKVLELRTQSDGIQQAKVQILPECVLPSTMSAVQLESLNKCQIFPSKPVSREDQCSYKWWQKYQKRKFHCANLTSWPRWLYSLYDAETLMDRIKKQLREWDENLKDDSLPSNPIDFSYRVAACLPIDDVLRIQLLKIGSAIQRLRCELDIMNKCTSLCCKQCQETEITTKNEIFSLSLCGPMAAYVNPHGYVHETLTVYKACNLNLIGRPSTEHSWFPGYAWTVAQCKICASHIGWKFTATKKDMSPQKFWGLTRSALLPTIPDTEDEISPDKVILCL
T1 sequence (Q16531 whole entry partner): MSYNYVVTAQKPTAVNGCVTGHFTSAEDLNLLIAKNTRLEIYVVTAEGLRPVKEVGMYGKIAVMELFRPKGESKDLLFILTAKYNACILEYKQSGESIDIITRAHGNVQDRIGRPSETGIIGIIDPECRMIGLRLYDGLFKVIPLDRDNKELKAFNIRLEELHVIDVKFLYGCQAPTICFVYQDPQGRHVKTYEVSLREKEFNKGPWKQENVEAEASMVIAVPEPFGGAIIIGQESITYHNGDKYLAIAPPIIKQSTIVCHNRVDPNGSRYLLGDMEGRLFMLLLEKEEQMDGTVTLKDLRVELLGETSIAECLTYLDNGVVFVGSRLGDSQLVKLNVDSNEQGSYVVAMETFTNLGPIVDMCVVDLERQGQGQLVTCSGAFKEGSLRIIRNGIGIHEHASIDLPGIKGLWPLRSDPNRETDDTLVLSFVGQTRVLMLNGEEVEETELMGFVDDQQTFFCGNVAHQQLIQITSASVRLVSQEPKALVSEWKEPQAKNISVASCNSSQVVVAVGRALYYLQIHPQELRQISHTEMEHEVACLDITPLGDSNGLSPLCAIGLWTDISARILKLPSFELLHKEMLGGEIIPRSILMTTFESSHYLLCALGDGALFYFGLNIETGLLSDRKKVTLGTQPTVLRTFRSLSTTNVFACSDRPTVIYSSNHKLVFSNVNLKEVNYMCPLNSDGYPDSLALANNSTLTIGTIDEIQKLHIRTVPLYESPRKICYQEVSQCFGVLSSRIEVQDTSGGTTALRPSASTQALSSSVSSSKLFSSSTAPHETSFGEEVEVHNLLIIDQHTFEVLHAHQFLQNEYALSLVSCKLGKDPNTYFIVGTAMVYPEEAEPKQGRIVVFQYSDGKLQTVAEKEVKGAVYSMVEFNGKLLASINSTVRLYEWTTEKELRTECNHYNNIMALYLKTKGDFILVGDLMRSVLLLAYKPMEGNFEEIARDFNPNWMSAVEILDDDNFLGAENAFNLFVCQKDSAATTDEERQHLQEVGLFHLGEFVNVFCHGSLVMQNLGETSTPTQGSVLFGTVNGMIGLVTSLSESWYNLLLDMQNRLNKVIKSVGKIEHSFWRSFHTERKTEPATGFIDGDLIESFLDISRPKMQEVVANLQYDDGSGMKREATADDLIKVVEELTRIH
Outline: (§2)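 Thawed human PBMCs, 1×10^6 cells/mL; cpd 50 nM or 500 nM, 24 h; RIPA lysis, BCA, SDS-PAGE, NC transfer, immunoblot. Readout: grayscale/internal control → % remaining; degradation = 1 − remaining.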

IKZF1 = target: T2, IKZF1 (Homo sapiens, UniProt Q13422+Q96SW2); assay: Western blot degradation of IKZF1 in hPBMCs (24 h); format: cell-based; conditions: compounds at 50 nM and 500 nM
T2 construct: The supernatant was aspirated as the extracted total cell protein; endogenous in cells; host or cells: human peripheral blood mononuclear cells (hPBMCs)
T2 sequence (Q13422 whole entry): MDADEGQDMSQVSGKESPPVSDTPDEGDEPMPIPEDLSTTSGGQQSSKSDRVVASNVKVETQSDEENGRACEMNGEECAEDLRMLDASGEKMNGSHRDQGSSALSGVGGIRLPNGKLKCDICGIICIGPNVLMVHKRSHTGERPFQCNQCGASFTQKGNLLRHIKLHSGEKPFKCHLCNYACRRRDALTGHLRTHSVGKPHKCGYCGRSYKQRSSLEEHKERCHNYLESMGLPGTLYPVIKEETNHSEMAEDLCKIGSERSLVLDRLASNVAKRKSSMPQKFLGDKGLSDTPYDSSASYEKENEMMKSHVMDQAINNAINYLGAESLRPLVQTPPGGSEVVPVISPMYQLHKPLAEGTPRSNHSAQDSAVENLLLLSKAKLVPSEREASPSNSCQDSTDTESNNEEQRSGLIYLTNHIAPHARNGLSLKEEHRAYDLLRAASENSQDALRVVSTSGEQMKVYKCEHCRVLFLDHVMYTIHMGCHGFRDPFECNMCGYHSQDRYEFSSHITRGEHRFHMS
T2 sequence (Q96SW2 whole entry): as the sequence (Q96SW2 whole entry) above
T2 sequence (Q16531 whole entry partner): as the sequence (Q16531 whole entry partner) above
Outline: as §2

IKZF2 = target: T3, IKZF2 (Homo sapiens, UniProt Q96SW2+Q9UKS7); assay: Western blot degradation of IKZF2 in hPBMCs (24 h); format: cell-based; conditions: compounds at 50 nM and 500 nM
T3 construct: The supernatant was aspirated as the extracted total cell protein; endogenous in cells; host or cells: human peripheral blood mononuclear cells (hPBMCs)
T3 sequence (Q9UKS7 whole entry): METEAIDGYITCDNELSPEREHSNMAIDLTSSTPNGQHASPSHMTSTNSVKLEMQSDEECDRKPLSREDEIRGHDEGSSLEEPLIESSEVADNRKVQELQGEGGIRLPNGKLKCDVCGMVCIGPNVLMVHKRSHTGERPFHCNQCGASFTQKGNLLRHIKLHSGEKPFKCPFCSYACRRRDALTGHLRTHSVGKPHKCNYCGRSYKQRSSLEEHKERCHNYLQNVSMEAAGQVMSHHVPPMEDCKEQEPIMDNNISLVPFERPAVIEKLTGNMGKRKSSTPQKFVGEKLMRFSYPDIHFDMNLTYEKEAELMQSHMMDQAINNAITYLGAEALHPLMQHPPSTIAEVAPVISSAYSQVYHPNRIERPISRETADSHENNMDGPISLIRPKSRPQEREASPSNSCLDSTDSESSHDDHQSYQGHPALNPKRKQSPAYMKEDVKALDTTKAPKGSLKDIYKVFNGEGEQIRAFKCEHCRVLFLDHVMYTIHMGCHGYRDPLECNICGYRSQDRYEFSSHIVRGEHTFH
T3 sequence (Q96SW2 whole entry): as the sequence (Q96SW2 whole entry) above
T3 sequence (Q16531 whole entry partner): as the sequence (Q16531 whole entry partner) above
Outline: as §2

IKZF3 = target: T4, IKZF3 (Homo sapiens, UniProt Q96SW2+Q9UKT9); assay: Western blot degradation of IKZF3 in hPBMCs (24 h); format: cell-based; conditions: compounds at 50 nM and 500 nM
T4 construct: The supernatant was aspirated as the extracted total cell protein; endogenous in cells; host or cells: human peripheral blood mononuclear cells (hPBMCs)
T4 sequence (Q9UKT9 whole entry): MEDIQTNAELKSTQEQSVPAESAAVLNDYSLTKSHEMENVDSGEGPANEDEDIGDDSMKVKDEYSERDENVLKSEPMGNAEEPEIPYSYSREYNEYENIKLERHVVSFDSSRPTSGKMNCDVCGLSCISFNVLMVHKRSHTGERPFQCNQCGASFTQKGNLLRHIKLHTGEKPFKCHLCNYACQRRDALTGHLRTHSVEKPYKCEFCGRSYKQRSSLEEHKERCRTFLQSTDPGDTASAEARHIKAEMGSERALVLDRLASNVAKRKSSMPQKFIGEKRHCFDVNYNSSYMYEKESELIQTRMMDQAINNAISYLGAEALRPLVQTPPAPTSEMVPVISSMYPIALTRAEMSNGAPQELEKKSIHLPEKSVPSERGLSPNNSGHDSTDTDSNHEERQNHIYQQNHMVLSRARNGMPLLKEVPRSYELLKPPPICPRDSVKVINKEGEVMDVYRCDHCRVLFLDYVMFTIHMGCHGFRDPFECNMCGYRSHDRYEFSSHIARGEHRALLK
T4 sequence (Q96SW2 whole entry): as the sequence (Q96SW2 whole entry) above
T4 sequence (Q16531 whole entry partner): as the sequence (Q16531 whole entry partner) above
Outline: as §2

CK1α = target: T5, CK1α (Homo sapiens, UniProt P48729+Q96SW2); assay: Western blot degradation of CK1α in hPBMCs (24 h); format: cell-based; conditions: compounds at 50 nM and 500 nM
T5 construct: The supernatant was aspirated as the extracted total cell protein; endogenous in cells; host or cells: human peripheral blood mononuclear cells (hPBMCs)
Outline: as §2

GSPT1 = target: T6, GSPT1 (Homo sapiens, UniProt P15170+Q96SW2); assay: Western blot degradation of GSPT1 in hPBMCs (24 h); format: cell-based; conditions: compounds at 50 nM and 500 nM
T6 construct: The supernatant was aspirated as the extracted total cell protein; endogenous in cells; host or cells: human peripheral blood mononuclear cells (hPBMCs)
T6 sequence (P15170 whole entry): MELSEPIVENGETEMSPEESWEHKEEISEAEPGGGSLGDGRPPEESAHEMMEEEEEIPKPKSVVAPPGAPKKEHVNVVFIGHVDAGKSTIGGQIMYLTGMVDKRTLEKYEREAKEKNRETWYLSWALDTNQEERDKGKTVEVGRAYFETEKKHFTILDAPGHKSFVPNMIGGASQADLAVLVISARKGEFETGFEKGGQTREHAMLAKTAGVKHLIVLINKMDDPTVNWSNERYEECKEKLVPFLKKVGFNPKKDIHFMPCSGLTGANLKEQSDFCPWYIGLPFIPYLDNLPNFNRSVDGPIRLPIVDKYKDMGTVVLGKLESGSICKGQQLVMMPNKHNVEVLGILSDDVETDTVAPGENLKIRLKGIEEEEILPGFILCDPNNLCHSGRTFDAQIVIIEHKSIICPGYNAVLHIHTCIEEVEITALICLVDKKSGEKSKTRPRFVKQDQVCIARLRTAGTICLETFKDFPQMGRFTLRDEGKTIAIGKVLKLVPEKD
T6 sequence (Q96SW2 whole entry): as the sequence (Q96SW2 whole entry) above
T6 sequence (Q16531 whole entry partner): as the sequence (Q16531 whole entry partner) above
Outline: as §2

H292 cells = assay: Inhibition of proliferation of human lung cancer cells H292 (CellTiter-Meiluncell Luminescent Cell Viability Assay, 96 h); format: cell-based
Procedure: as §1
(§3) The IC50 values of the compounds of the present disclosure (including the compounds in Table 1, and Examples 1-498) were determined using the CellTiter-Meiluncell Luminescent Cell Viability Assay Kit from Dalian Meilun Biotech Co., Ltd. The detailed procedure is as follows: Tumor cells were seeded in 96-well cell culture plates at the densities specified in Table 3. On the following day, the test compounds of the present disclosure were subjected to serial dilution. […] Subsequently, 0.5 μL of the test compound dilution was transferred into the 96-well plate containing the cells, with each well containing 100 μL of cell culture medium. […]
(§4) 0.5 μL of the aforementioned diluted compound of the present disclosure (including the compounds in Table 1, and Examples 1-498) was added to the seeded cells in 100 μL of medium, yielding a final test compound concentration of 10 nM. […] The growth inhibition curves for the compounds of the present disclosure were plotted using Prism GraphPad software, and the IC50 values were calculated therefrom.

H2228 cells = assay: Inhibition of proliferation of non-small cell lung cancer cells H2228 (cell viability assay, 96 h); format: cell-based, human
Procedure: as §1, §3, §4

MDA-MB-231 cells = assay: Inhibition of proliferation of breast cancer cells MDA-MB-231 (cell viability assay, 96 h); format: cell-based, human
Procedure: as §1, §3, §4

| Structure (SMILES) | pIC50 (MM.1S cells) | pIC50 (MGC803 cells) | pIC50 (Jurkat cells) | WEE1 substrate protein remaining % (WEE1) | IKZF1 substrate protein remaining % (IKZF1) | IKZF2 substrate protein remaining % (IKZF2) | IKZF3 substrate protein remaining % (IKZF3) | CK1α substrate protein remaining % (CK1α) | GSPT1 substrate protein remaining % (GSPT1) | Inhibition Rate at 10 nM (%) (H292 cells; H292, 10 nM) | Inhibition Rate at 500 nM (%) (H292 cells; H292, 500 nM) | Inhibition Rate at 10 nM (%) (H2228 cells; H2228, 10 nM) | Inhibition Rate at 500 nM (%) (H2228 cells; H2228, 500 nM) | Inhibition Rate at 10 nM (%) (MDA-MB-231 cells; MDA-MB-231, 10 nM) | Inhibition Rate at 500 nM (%) (MDA-MB-231 cells; MDA-MB-231, 500 nM) |
| --- | --- | --- | --- | --- | --- | --- | --- | --- | --- | --- | --- | --- | --- | --- | --- |
| O=C1CCN(N2Cc3cc(CN4CCN(C(c5ccccc5)c5ccccc5)CC4)ccc3C2=O)C(=O)N1 [GT-04889, 1-(5-((4-benzhydrylpiperazin-1-yl)methyl)-1-oxoisoindolin-2-yl)dihydropyrimidine-2,4(1H,3H)-dione] | 6.52 to 7.00 | 6.30 to 6.52 | 6.30 to 6.52 | A (0% ≤ substrate protein remaining % ≤80%) | A (0% ≤ substrate protein remaining % ≤80%) | A (0% ≤ substrate protein remaining % ≤80%) | A (0% ≤ substrate protein remaining % ≤80%) | B (80%< substrate protein remaining % ≤100%) | A (0% ≤ substrate protein remaining % ≤80%) |  |  |  |  |  |  |
| O=C1CCN(N2Cc3cc(CN4CCC(N(c5ccccc5)c5ccccc5)CC4)ccc3C2=O)C(=O)N1 [GT-04939, 1-(5-((4-(diphenylamino)piperidin-1-yl)methyl)-1-oxoisoindolin-2-yl)dihydropyrimidine-2,4(1H,3H)-dione] | 7.30 to 8.00 | 6.52 to 7.00 | 6.52 to 7.00 | A (0% ≤ substrate protein remaining % ≤80%) | A (0% ≤ substrate protein remaining % ≤80%) | A (0% ≤ substrate protein remaining % ≤80%) | A (0% ≤ substrate protein remaining % ≤80%) | A (0% ≤ substrate protein remaining % ≤80%) | A (0% ≤ substrate protein remaining % ≤80%) |  |  |  |  |  |  |
| O=C1CCN(N2Cc3cc(CN4CCC(N(c5ccccc5)c5ccccn5)CC4)ccc3C2=O)C(=O)N1 [GT-04940, 1-(1-oxo-5-((4-(phenyl(pyridin-2-yl)amino)piperidin-1-yl)methyl)isoindolin-2-yl)dihydropyrimidine-2,4(1H,3H)-dione] | 7.00 to 7.30 | 6.52 to 7.00 | 6.52 to 7.00 | A (0% ≤ substrate protein remaining % ≤80%) | A (0% ≤ substrate protein remaining % ≤80%) | A (0% ≤ substrate protein remaining % ≤80%) | A (0% ≤ substrate protein remaining % ≤80%) | A (0% ≤ substrate protein remaining % ≤80%) | A (0% ≤ substrate protein remaining % ≤80%) |  |  |  |  |  |  |
| O=C1CCN(N2Cc3cc(CN4CCC(Nc5ccccc5-c5ccc(Cl)cc5)CC4)ccc3C2=O)C(=O)N1 [GT-04943, 1-(5-((4-((4′-chloro-[1,1′-biphenyl]-2-yl)amino)piperidin-1-yl)methyl)-1-oxoisoindolin-2-yl)dihydropyrimidine-2,4(1H,3H)-dione] | 7.30 to 8.00 | 6.52 to 7.00 | 6.52 to 7.00 | A (0% ≤ substrate protein remaining % ≤80%) | A (0% ≤ substrate protein remaining % ≤80%) | A (0% ≤ substrate protein remaining % ≤80%) | A (0% ≤ substrate protein remaining % ≤80%) | B (80%< substrate protein remaining % ≤100%) | A (0% ≤ substrate protein remaining % ≤80%) |  |  |  |  |  |  |
| Nc1cccc2c1CN(C1CCC(=O)NC1=O)C2=O (stereo not drawn) [lenalidomide, reference compound] |  |  |  |  |  |  |  |  |  | b1 (0 < b1 <1%) | b3 (5% ≤ b3 <10%) | d5 (20% ≤ d5 <25%) | d4 (15% ≤ d4 <20%) | f4 (15% ≤ f4 <18%) | f3 (10% ≤ f3 < 15%) |
